Source: patent EP4782444A1, “CRYSTAL FORM OF PYRIMIDINE ANILINE COMPOUND, PREPARATION METHOD, AND USE” (TYK Medicines, Inc., priority 2023, dated 2025)
In brackets after ≈: the same amount, converted by molar mass. Like-named read-outs stand apart in the source and are kept apart here.

Legend:
[1] = physchem
[2] = Pharmacokinetic study in rats, single oral gavage; settings: SD rats, 30 mpk; for AUC0-last / Cmax / T1/2 / Tmax: plasma, 30 mg/kg
Description: SD rats received a single oral gavage administration of citrate crystalline form I, mesylate crystalline form I, and free base crystalline form I, respectively. Blood samples were collected at various time points to determine drug concentrations in rat plasma post administration of tested substance and calculate PK-related parameters.
The prepared test sample solutions were analyzed by the analytical department of the present test facility using LC-MS/MS.
Animals were fasted (≥10 h) with free access to water from the day before dosing. On the test day, rats were weighed respectively, marked at the tail, and blank blood samples were collected before administration. Blood was collected via tail vein.
0.1 mL of whole blood was collected into EDTA-Na2 anticoagulant tubes, inverted 3-4 times to mix well, centrifuged at 10,000 g, 4 °C for 5 min to separate plasma, and stored at - 80 °C until analysis. Blood was collected via tail vein.
Plasma samples were analyzed by the analytical department of the test facility using LC-MS/MS.

[3] = 37 °C
[4] = Solid-state stability study (HPLC and XRPD analysis); type: physicochemical
[5] = physchem; remark: listed apart in the source
[6] = day 0 (baseline before storage), mean of 3 parallel experiments

## C=CC(=O)Nc1cc(Nc2ncc(C(=O)OC(C)C)c(-c3cn(C)c4ccccc34)n2)c(OC)cc1N(C)[C@@H]1[C@@H]2CN(C)C[C@@H]21 [Free base crystalline form I]
[1]; 1,4-dioxane
  Solubility: < 270 µg/mL
[1]; acetone
  Solubility: 2220 to 4440 µg/mL (≈ 3.64 to 7.28 mM)
[1]; acetonitrile
  Solubility: 930 to 1010 µg/mL (≈ 1.53 to 1.66 mM)
[1]; cyclohexane
  Solubility: < 330 µg/mL
[1]; dce
  Solubility: 61800 to 124000 µg/mL (≈ 101 to 203 mM)
[1]; dcm
  Solubility: > 107000 µg/mL
[1]; dmso
  Solubility: 2600 to 2930 µg/mL (≈ 4.26 to 4.81 mM)
[1]; ethanol
  Solubility: < 300 µg/mL
[1]; ethyl acetate
  Solubility: < 290 µg/mL
[1]; heptane
  Solubility: < 300 µg/mL
[1]; ipac
  Solubility: < 300 µg/mL
[1]; isopropanol
  Solubility: < 350 µg/mL
[1]; mek
  Solubility: 2780 to 4440 µg/mL (≈ 4.56 to 7.28 mM)
[1]; meoh
  Solubility: < 400 µg/mL
[1]; mtbe
  Solubility: < 330 µg/mL
[1]; nmp
  Solubility: 18200 to 27400 µg/mL (≈ 29.9 to 44.9 mM)
[1]; thf
  Solubility: 2550 to 3190 µg/mL (≈ 4.18 to 5.23 mM)
[1]; water
  Solubility: < 270 µg/mL
[2]
  AUC0-last: 1122.05 ng·h/mL
  Cmax: 126.5 ng/mL
  T1/2: 2.19 h
  Tmax: 4 h
[3]; FaSSIF, 0.5 h, 30 min
  Solubility: 130 µg/mL (≈ 0.213 mM)
[3]; FaSSIF, 2 h, 120 min
  Solubility: 130 µg/mL (≈ 0.213 mM)
[3]; FaSSIF, 24 h, 1440 min
  Solubility: 180 µg/mL (≈ 0.295 mM)
[3]; FeSSIF, 0.5 h, 30 min
  Solubility: 3530 µg/mL (≈ 5.79 mM)
[3]; FeSSIF, 2 h, 120 min
  Solubility: > 5020 µg/mL
[3]; FeSSIF, 24 h, 1440 min
  Solubility: > 5020 µg/mL
[3]; H2O, 0.5 h, 30 min
  Solubility: 10 µg/mL (≈ 0.0164 mM)
[3]; H2O, 2 h, 120 min
  Solubility: 10 µg/mL (≈ 0.0164 mM)
[3]; H2O, 24 h, 1440 min
  Solubility: 10 µg/mL (≈ 0.0164 mM)
[3]; SGF, 0.5 h, 30 min
  Solubility: >5000 µg/mL
[3]; SGF, 2 h, 120 min
  Solubility: > 5000 µg/mL
[3]; SGF, 24 h, 1440 min
  Solubility: > 5000 µg/mL

## C=CC(=O)Nc1cc(Nc2ncc(C(=O)OC(C)C)c(-c3cn(C)c4ccccc34)n2)c(OC)cc1N(C)[C@@H]1[C@@H]2CN(C)C[C@@H]21 [Mesylate crystalline form I]
[4]; 25°C/60%RH, day 3
  Appearance: Unchanged
[4]; 25°C/60%RH, day 3, XRPD
  Crystalline Form: Unchanged
[4]; 25°C/60%RH, day 3, open vial
  Purity %: 98.19%
[4]; 25°C/60%RH, day 7
  Appearance: Unchanged
[4]; 25°C/60%RH, day 7, XRPD
  Crystalline Form: Unchanged
[4]; 25°C/60%RH, day 7, open vial
  Purity %: 98.24%
[4]; 25°C/95±5%RH, day 3
  Appearance: Unchanged
[4]; 25°C/95±5%RH, day 3, XRPD
  Crystalline Form: Unchanged
[4]; 25°C/95±5%RH, day 3, open vial
  Purity %: 98.17%
[4]; 25°C/95±5%RH, day 7
  Appearance: Unchanged
[4]; 25°C/95±5%RH, day 7, XRPD
  Crystalline Form: Unchanged
[4]; 25°C/95±5%RH, day 7, open vial
  Purity %: 98.20%
[4]; 40°C/75%RH, day 3
  Appearance: Unchanged
[4]; 40°C/75%RH, day 3, XRPD
  Crystalline Form: Unchanged
[4]; 40°C/75%RH, day 3, open vial
  Purity %: 98.17%
[4]; 40°C/75%RH, day 7
  Appearance: Unchanged
[4]; 40°C/75%RH, day 7, XRPD
  Crystalline Form: Unchanged
[4]; 40°C/75%RH, day 7, open vial
  Purity %: 98.16%
[4]; 60 °C, day 3
  Appearance: Unchanged
[4]; 60 °C, day 3, XRPD
  Crystalline Form: Unchanged
[4]; 60 °C, day 3, open vial
  Purity %: 98.15%
[4]; 60 °C, day 7
  Appearance: Unchanged
[4]; 60 °C, day 7, XRPD
  Crystalline Form: Unchanged
[4]; 60 °C, day 7, open vial
  Purity %: 98.12%
[4]; 80 °C, day 1
  Appearance: Unchanged
[4]; 80 °C, day 1, XRPD
  Crystalline Form: Unchanged
[4]; 80 °C, day 1, open vial
  Purity %: 98.38%
[4]; 80 °C, day 3
  Appearance: Unchanged
[4]; 80 °C, day 3, XRPD
  Crystalline Form: Unchanged
[4]; 80 °C, day 3, open vial
  Purity %: 98.24%
[4]; [6]
  Purity %: 98.50%
[4]; under all five storage conditions
  Crystalline Form: remained unchanged
[5]; fessif
  solubility at 0.5 h: > 5010 µg/mL
  solubility at 2 h: > 5010 µg/mL
  solubility at 24 h: > 5010 µg/mL
[5]; sgf
  solubility at 0.5 h: > 5000 µg/mL
  solubility at 2 h: > 5000 µg/mL
  solubility at 24 h: > 5000 µg/mL
[2]
  in vivo exposure in rats compared with free base crystalline form I: higher
  AUC0-last: 1811.31 ng·h/mL
  Cmax: 222.5 ng/mL
  T1/2: 2.54 h
  Tmax: 3 h
[3]; FaSSIF, 0.5 h, 30 min
  Solubility: >5000 µg/mL
[3]; FaSSIF, 2 h, 120 min
  Solubility: > 5000 µg/mL
[3]; FaSSIF, 24 h, 1440 min
  Solubility: 3410 µg/mL
[3]; H2O, 0.5 h, 30 min
  Solubility: >5000 µg/mL
[3]; H2O, 2 h, 120 min
  Solubility: > 5000 µg/mL
[3]; H2O, 24 h, 1440 min
  Solubility: > 5000 µg/mL

## C=CC(=O)Nc1cc(Nc2ncc(C(=O)OC(C)C)c(-c3cn(C)c4ccccc34)n2)c(OC)cc1N(C)[C@@H]1[C@@H]2CN(C)C[C@@H]21 [Maleate crystalline form II]
[4]; 25°C/60%RH, day 3
  Appearance: Unchanged
[4]; 25°C/60%RH, day 3, XRPD
  Crystalline Form: Unchanged
[4]; 25°C/60%RH, day 3, open vial
  Purity %: 98.68%
[4]; 25°C/60%RH, day 7
  Appearance: Unchanged
[4]; 25°C/60%RH, day 7, XRPD
  Crystalline Form: Unchanged
[4]; 25°C/60%RH, day 7, open vial
  Purity %: 98.66%
[4]; 25°C/95±5%RH, day 3
  Appearance: Unchanged
[4]; 25°C/95±5%RH, day 3, XRPD
  Crystalline Form: Unchanged
[4]; 25°C/95±5%RH, day 3, open vial
  Purity %: 98.66%
[4]; 25°C/95±5%RH, day 7
  Appearance: Unchanged
[4]; 25°C/95±5%RH, day 7, XRPD
  Crystalline Form: Changed
[4]; 25°C/95±5%RH, day 7, open vial
  Purity %: 98.67%
[4]; 40°C/75%RH, day 3
  Appearance: Unchanged
[4]; 40°C/75%RH, day 3, XRPD
  Crystalline Form: Unchanged
[4]; 40°C/75%RH, day 3, open vial
  Purity %: 98.67%
[4]; 40°C/75%RH, day 7
  Appearance: Unchanged
[4]; 40°C/75%RH, day 7, XRPD
  Crystalline Form: Unchanged
[4]; 40°C/75%RH, day 7, open vial
  Purity %: 98.64%
[4]; 60 °C, day 3
  Appearance: Unchanged
[4]; 60 °C, day 3, XRPD
  Crystalline Form: Unchanged
[4]; 60 °C, day 3, open vial
  Purity %: 98.66%
[4]; 60 °C, day 7
  Appearance: Unchanged
[4]; 60 °C, day 7, XRPD
  Crystalline Form: Unchanged
[4]; 60 °C, day 7, open vial
  Purity %: 98.68%
[4]; 80 °C, day 1
  Appearance: Unchanged
[4]; 80 °C, day 1, XRPD
  Crystalline Form: Unchanged
[4]; 80 °C, day 1, open vial
  Purity %: 98.77%
[4]; 80 °C, day 3
  Appearance: Unchanged
[4]; 80 °C, day 3, XRPD
  Crystalline Form: Unchanged
[4]; 80 °C, day 3, open vial
  Purity %: 98.66%
[4]; after 7 days, 25 °C /90±5%RH
  Crystalline Form: transformed into an unstable hydrate of maleate
[4]; [6]
  Purity %: 98.83%
[4]; storage conditions other than 25 °C /90±5%RH
  changes under other conditions: no significant changes were observed
[3]; FaSSIF, 0.5 h, 30 min
  Solubility: > 5030 µg/mL
[3]; FaSSIF, 2 h, 120 min
  Solubility: > 5030 µg/mL
[3]; FaSSIF, 24 h, 1440 min
  Solubility: 3450 µg/mL
[3]; FeSSIF, 0.5 h, 30 min
  Solubility: > 5010 µg/mL
[3]; FeSSIF, 2 h, 120 min
  Solubility: > 5010 µg/mL
[3]; FeSSIF, 24 h, 1440 min
  Solubility: > 5010 µg/mL
[3]; H2O, 0.5 h, 30 min
  Solubility: 1640 µg/mL
[3]; H2O, 2 h, 120 min
  Solubility: 1620 µg/mL
[3]; H2O, 24 h, 1440 min
  Solubility: 1840 µg/mL
[3]; SGF, 0.5 h, 30 min
  Solubility: > 5010 µg/mL
[3]; SGF, 2 h, 120 min
  Solubility: > 5010 µg/mL
[3]; SGF, 24 h, 1440 min
  Solubility: > 5010 µg/mL
